One assay addresses PsrA. Briefly: isothermal titration calorimetry, one-site model. It is filed as binding, Serratia. The note with it: 50 mM PBS pH 7.4, 25°C; 30 μM PsrA titrated with 0.3 mM ligand; effector, no DNA. On the technique in general: In ITC the heat of successive injections is recorded.
Assay [1] concerns the target PsrA-His6 (His-tagged PsrA, LysR family transcriptional regulator of Serratia marcescens JNB5-1) (Serratia marcescens JNB5-1). Briefly: SEC. (In general: SEC sorts molecules by how far they enter the pores of the column.)

For orientation: Kd means the constant that tells how readily two partners part at equilibrium. High values mean weaker binding, low ones tighter binding. Turning to `O=C(O)[C@@H]1CCCN1` [L-proline], the Kd at PsrA was determined as 13.6 µM. As usually defined, the stoichiometry N is the number of molecules, sites or subunits per partner or assembly. As for “PsrA-His6 (His-tagged PsrA, LysR family transcriptional regulator of Serratia marcescens JNB5-1) (natural protein)”, the stoichiometry N in assay [1] was 4.

(Values after publication PMC8754645 (Nucleic Acids Research, 2021).)
